The text below walks through data of PubChem BioAssay (NCI).

Molecules are shown by their SMILES.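 Results reflect a 48-hour exposure of cells in 96-well plates to compound at five concentrations. TGI: total growth inhibition.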

Among the test systems are A549 NSCLC; MDA-MB-435; U251 CNS; PC-3 prostate; NCI-H23 lung; 786-0 renal; SNB-19 CNS; OVCAR-5 ovarian; COLO 205 colon; MDA-MB-231 breast; SN12C renal; ACHN renal; LOX IMVI melanoma; UACC-257 melanoma; HCC-2998 colon; SR leukemia; DU-145 prostate; SK-OV-3 ovarian; HT29 colon.
What all share (test): inhibition of tumour cell growth, NCI panel, 48 h

Regarding `O=C(O)c1nc2ccc(C(F)(F)F)cc2nc1NCc1ccc(F)cc1`, the TGI in the assay on A549 NSCLC was 42.2 µM; in the assay on MDA-MB-435 it was over 100 µM; with U251 CNS, 56.9 µM; in the assay with PC-3 prostate, 82.6 µM; in the assay with NCI-H23 lung, 79.8 µM; in the assay with 786-0 renal it was 28 µM. The TGI is over 100 µM with SNB-19 CNS; 42.5 µM in the assay with OVCAR-5 ovarian; 44.6 µM with COLO 205 colon; 81.4 µM in the assay on MDA-MB-231 breast; 35.4 µM with SN12C renal; over 100 µM with ACHN renal. Further, the TGI with LOX IMVI melanoma is 36.5 µM; in the assay on UACC-257 melanoma, 76.2 µM; in the assay with HCC-2998 colon it was 65.6 µM; with SR leukemia, 42 µM; in the assay with DU-145 prostate, over 100 µM; with SK-OV-3 ovarian it was 93 µM.

For `CCOP(=O)(COCCn1ncc(=O)[nH]c1=O)OCC`, the TGI in the assay with A549 NSCLC, in the assay with MDA-MB-435, in the assay with U251 CNS, with PC-3 prostate, in the assay with NCI-H23 lung and in the assay on SNB-19 CNS was over 100 µM in each case. The TGI in the assay with OVCAR-5 ovarian, in the assay with COLO 205 colon, in the assay with MDA-MB-231 breast, in the assay on SN12C renal, with ACHN renal and with LOX IMVI melanoma was over 100 µM throughout. For the same compound, the TGI in the assay with HCC-2998 colon, in the assay with SR leukemia, with HT29 colon and in the assay with DU-145 prostate was over 100 µM throughout.

For `Cc1cc(C)c(C(=O)c2nnc3ccccc3c2N)c(C)c1`, the TGI in the assay on A549 NSCLC was over 100 µM; in the assay on MDA-MB-435, 56.3 µM; in the assay on U251 CNS it was over 100 µM; in the assay on PC-3 prostate, 56.9 µM; with NCI-H23 lung, over 100 µM; in the assay with 786-0 renal it was 32.2 µM. The TGI was over 100 µM with SNB-19 CNS; over 100 µM in the assay on OVCAR-5 ovarian; 30.2 µM with COLO 205 colon; 63.8 µM with MDA-MB-231 breast; 38.5 µM with SN12C renal; over 100 µM with ACHN renal. The TGI with LOX IMVI melanoma is 34.9 µM; in the assay on UACC-257 melanoma, over 100 µM; in the assay with SR leukemia it was over 100 µM; in the assay on HT29 colon it was 76.8 µM; in the assay with DU-145 prostate it was 84 µM; in the assay on SK-OV-3 ovarian it was over 100 µM.

As to `COC(=O)[C@]12CCC(C)(C)C[C@H]1[C@H]1C(=O)C=C3[C@@]4(C)C=C(C#N)C(=O)C(C)(C)[C@@H]4CC[C@@]3(C)[C@]1(C)CC2`, the TGI with A549 NSCLC was determined as 1.29 µM; in the assay with MDA-MB-435, 0.0585 µM; with U251 CNS it was 0.0744 µM; in the assay with PC-3 prostate, 0.469 µM; in the assay with NCI-H23 lung it was 0.0392 µM; in the assay with 786-0 renal, 0.415 µM. Further, the TGI in the assay on SNB-19 CNS came to 0.243 µM; in the assay on OVCAR-5 ovarian it was 0.194 µM; in the assay on COLO 205 colon, 0.122 µM; with MDA-MB-231 breast, 0.106 µM; with SN12C renal, 0.187 µM; with ACHN renal, 0.0639 µM. Further, the TGI came to 0.0795 µM with UACC-257 melanoma; 0.0305 µM in the assay on HCC-2998 colon; 0.141 µM in the assay on SR leukemia; 0.295 µM with DU-145 prostate; 1.1 µM in the assay on SK-OV-3 ovarian.

For the compound `O=S1(=O)Cc2ccc3c4c2-c2c(ccc5ccc(c-4c25)CS(=O)(=O)C3)C1`, the TGI in the assay with A549 NSCLC, in the assay on MDA-MB-435, in the assay with U251 CNS, in the assay on PC-3 prostate, in the assay on 786-0 renal and with SNB-19 CNS was over 100 µM each time. The TGI in the assay with OVCAR-5 ovarian, in the assay on MDA-MB-231 breast, in the assay on SN12C renal, with ACHN renal, in the assay with LOX IMVI melanoma and in the assay on UACC-257 melanoma was over 100 µM in each case. Further, the TGI in the assay with HCC-2998 colon is over 100 µM; in the assay with SR leukemia, 69 µM; in the assay with HT29 colon, over 100 µM; in the assay on DU-145 prostate it was over 100 µM; in the assay on SK-OV-3 ovarian, over 100 µM.

Consider `COc1cc(O)c(C(=O)/C=C/c2ccc(O)cc2)cc1Oc1ccc(/C=C/C(=O)c2ccc(O)cc2O)cc1`, for which the TGI in the assay on A549 NSCLC is over 50 µM; with MDA-MB-435, 25.7 µM; with U251 CNS, 17.2 µM; with PC-3 prostate, 22.1 µM; in the assay on NCI-H23 lung, 33.2 µM; in the assay on 786-0 renal it was 16.5 µM. Also, the TGI in the assay with SNB-19 CNS was found to be 43.1 µM; in the assay with OVCAR-5 ovarian, 26.4 µM; in the assay on COLO 205 colon it was 15.4 µM; in the assay with MDA-MB-231 breast it was 36.7 µM; in the assay on SN12C renal, 19.4 µM; with ACHN renal, 15.7 µM. For the same compound, the TGI in the assay on LOX IMVI melanoma is 18.3 µM; in the assay on UACC-257 melanoma it was 23.2 µM; in the assay with SR leukemia, 16.1 µM; in the assay on HT29 colon it was 14.2 µM; in the assay with DU-145 prostate, 23.6 µM; with SK-OV-3 ovarian, 15.9 µM.

Regarding `COC(=O)c1ccccc1Nc1nc(-c2cccs2)nc2cc(OC)c(OC)cc12`, the TGI with A549 NSCLC, in the assay on MDA-MB-435, in the assay on U251 CNS, in the assay with PC-3 prostate, in the assay with NCI-H23 lung and with 786-0 renal was over 100 µM each time. Moreover, the TGI with SNB-19 CNS, with OVCAR-5 ovarian, with COLO 205 colon, in the assay with MDA-MB-231 breast, with SN12C renal and with ACHN renal was over 100 µM in each case. Besides, the TGI with LOX IMVI melanoma, with UACC-257 melanoma, with SR leukemia, in the assay with HT29 colon, with DU-145 prostate and with SK-OV-3 ovarian was over 100 µM each time.

Turning to `C#CC(C)(C)OC(=O)C(=[N+]=[N-])C(C)=O`, the TGI with A549 NSCLC, in the assay with MDA-MB-435, in the assay on U251 CNS, in the assay on PC-3 prostate, with NCI-H23 lung and in the assay on 786-0 renal was over 10 µM throughout. In addition, the TGI in the assay on SNB-19 CNS, in the assay on OVCAR-5 ovarian, in the assay with MDA-MB-231 breast, with SN12C renal, with ACHN renal and with LOX IMVI melanoma was over 10 µM each time. For the same compound, the TGI in the assay on UACC-257 melanoma, in the assay with HCC-2998 colon, in the assay on SR leukemia, in the assay on HT29 colon, with DU-145 prostate and in the assay on SK-OV-3 ovarian was over 10 µM in each case.
